# Assay results as given in BindingDB's records for PubMed 36074125 (Purdue University, 2022).
# Biological target: T1, N-terminal Xaa-Pro-Lys N-methyltransferase 1 (Homo sapiens, UniProt Q9BV86)
# T1 sequence (Q9BV86 whole entry): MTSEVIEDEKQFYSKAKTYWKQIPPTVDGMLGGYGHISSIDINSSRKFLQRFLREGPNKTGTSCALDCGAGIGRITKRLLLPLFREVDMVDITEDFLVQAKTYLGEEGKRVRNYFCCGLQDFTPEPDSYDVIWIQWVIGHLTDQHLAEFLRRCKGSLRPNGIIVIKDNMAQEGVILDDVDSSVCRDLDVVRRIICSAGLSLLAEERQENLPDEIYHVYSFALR
# Experiment: Inhibition of full length NTMT1 (1 to 222 residues) (unknown origin) expressed in Escherichia coli BL21 (DE3) using GPKRIA as substrate preincubated for 10 mins followed by substrate addition measured after 15 mins by microplate reader method
row,SMILES,IC50
1,CC(C)(NC(=O)O[C@@H]1CN2CCC1CC2)c1csc(-c2ccc(Cl)cc2)n1,910 nM
2,CC(C)(NC(=O)O[C@@H]1CN2CCC1CC2)c1csc(-c2ccc(C(F)(F)F)cc2)n1,3200 nM
